Several values for one entry are separate records, joined by “and”; a condition that tells them apart may be missing. Equal entries are not always repeated. Where two headings read alike, the source gives them in different places.
Columns and labels:
HIV-1 protease [1] = molecular target: T1, HIV-1 protease (Human immunodeficiency virus type 1 group M subtype B, UniProt P04585); assay: biochemical
Experimental: The HIV protease screening assay is based on fluorescently labeled substrate which can be resolved from nonlabeled cleavage product using special beads coated with streptavidin. The substrate is biotinylated at the amino terminal arginine and fluorescently labeled with fluorescein isothiocynate (FITC) at the carboxyl terminal lysine. […] Substrate ([…] of 0.2 μM), sample (10 μl of desired concentraion), and enzyme (10 μl of 0.1 μM) are added to a 96 well pandex plate. The assay is run in 0.1 M sodium acetate buffer at pH 5.5 in the presence of 1.0 M sodium chloride and 0.05% NP-40 with incubated in the dark for one hour at room temperature. Strepavidin coated polystyrene beads {40 μl of 0.1% (w/v)} are added and the plate is incubated in the dark for an additional half hour. The labeled cleavage product is separated from the unreacted substrate via filtration and is read on the Idexx screen machine. The data are analyzed by appropriate computer algorithms to ascertain percent inhibition values.
Determination of Ki values utilizes the same materials and equipment employed for percent inhibition studies. Two-fold serial dilutions are made for a given inhibitor from 2, 3 or 4 starting concentrations with a total of 24, 36 or 48 individual inhibitor concentrations. These dilutions are performed utilizing the BioMek robotics system. The assay consists of 10 μL of 40 nM HIV-1 protease, 10 μL of the various inhibitor concentrations, and 20 μL of 200 μM substrate (40 μL total). The reaction is allowed to proceed for 90 min at room temperature, terminated with 40 μL of avidin beads and processed (supra vide). An inhibitor with a known K; is run in parallel to verify the validity of the assay. The data is processed utilizing a computer program employing a nonlinear least square analysis of the data to generate the Ki values.

HIV-1 protease [2] = molecular target: T1, HIV-1 protease; assay: biochemical; details: Table I, read-out: Protease % Inhib; for inhibition at 0.37 µM: Dose 0.370 μM; for inhibition at 1.1 µM: Dose 1.100 μM; for inhibition at 3.3 µM: Dose 3.300 μM
Experimental: The HIV protease screening assay is based on fluorescently labeled substrate which can be resolved from nonlabeled cleavage product using special beads coated with streptavidin. The substrate is biotinylated at the amino terminal arginine and fluorescently labeled with fluorescein isothiocynate (FITC) at the carboxyl terminal lysine. This assay has been employed to detect novel, nonpeptidic inhibitors of HIV-1 protease. Substrate (20 μM of 0.2 μM), sample (10 μl of desired concentraion), and enzyme (10 μl of 0.1 μM) are added to a 96 well pandex plate. The assay is run in 0.1 M sodium acetate buffer at pH 5.5 in the presence of 1.0 M sodium chloride and 0.05% NP-40 with incubated in the dark for one hour at room temperature. Strepavidin coated polystyrene beads {40 μl of 0.1% (w/v)} are added and the plate is incubated in the dark for an additional half hour. The labeled cleavage product is separated from the unreacted substrate via filtration and is read on the Idexx screen machine. The data are analyzed by appropriate computer algorithms to ascertain percent inhibition values.

[3] = Table I, read-out: HIV Protease FITC Assay Ki
[4] = read-out: HIV Protease FITC Assay Ki

With O=c1oc(C(CC2CC2)CC2CC2)cc(O)c1C(c1cccc(NS(=O)(=O)c2nc3ccccc3[nH]2)c1)C1CC1 (stereo not drawn) [Example 101, N-(3-{Cyclopropyl-[6-(2-cyclopropyl-1-cyclopropylmethyl-ethyl)-4-hydroxy-2-oxo-2H-pyran-3-yl]-methyl}-phenyl)-1H-benzo-imidazole-2-sulfonamide] the Ki (HIV-1 protease [1]; [3]) was 0.66 nM, the inhibition at 0.123 µM (HIV-1 protease [2]) was 70.2% and the inhibition at 0.37 µM (HIV-1 protease [2]) was 84%. For the same molecule, the inhibition at 1.1 µM (HIV-1 protease [2]) was 93.3%, the inhibition at 3.3 µM (HIV-1 protease [2]) was 97% and the inhibition at 10 µM (HIV-1 protease [2]) was 102%. It also gave an inhibition at 30 µM (HIV-1 protease [2]) of 97.3%.
CCCC1(CCc2ccccc2)CC(O)=C(C(c2cccc(NS(=O)(=O)c3ccc(C#N)cc3)c2)C2CC2)C(=O)O1 (stereo not drawn) [Example 58] showed a Ki (HIV-1 protease [1]; [3]) of 3.8 nM, an inhibition at 0.123 µM (HIV-1 protease [2]) of 64.9% and an inhibition at 0.37 µM (HIV-1 protease [2]) of 83.7%. It also gave an inhibition at 1.1 µM (HIV-1 protease [2]) of 94.2%, an inhibition at 3.3 µM (HIV-1 protease [2]) of 95.9% and an inhibition at 10 µM (HIV-1 protease [2]) of 100%. The inhibition at 30 µM (HIV-1 protease [2]) was 89.8%.
O=C(O)c1ccc(S(=O)(=O)Cc2cccc(C(c3c(O)c4c(oc3=O)CCCCCC4)C3CC3)c2)cc1 (stereo not drawn) [Example 14, 3-[cyclopropyl[3-[(4-carboxyphenylsulfonyl)methyl]phenyl]methyl]-5,6,7,8,9,10-hexahydro-4-hydroxy-2H-cycloocta[b]pyran-2-one] showed a Ki (HIV-1 protease [1]; [3]) of 6.88 nM, an inhibition at 0.123 µM (HIV-1 protease [2]) of 65.7% and an inhibition at 0.37 µM (HIV-1 protease [2]) of 88%. It also gave an inhibition at 1.1 µM (HIV-1 protease [2]) of 96.8%, an inhibition at 3.3 µM (HIV-1 protease [2]) of 96.6% and an inhibition at 10 µM (HIV-1 protease [2]) of 102%. The inhibition at 30 µM (HIV-1 protease [2]) was 106%.
With CC[C@H](Cc1ccccc1)c1cc(O)c(C(c2cccc(NS(=O)(=O)c3ccccn3)c2)C2CC2)c(=O)o1 (single isomer, unassigned) [Example 141, N-(3-(R or S)-{Cyclopropyl-[6-(1-(R)-ethylphenethyl)-4-hydroxy-2-oxo-2H-pyran-3-yl]-methyl}-phenyl)-2-pyridinesulfonamide] the Ki (HIV-1 protease [1]; [3]) was 1.4 nM, the inhibition at 0.123 µM (HIV-1 protease [2]) was 78.7% and the inhibition at 0.37 µM (HIV-1 protease [2]) was 88.7%. It also gave an inhibition at 1.1 µM (HIV-1 protease [2]) of 92%, an inhibition at 3.3 µM (HIV-1 protease [2]) of 88.3% and an inhibition at 10 µM (HIV-1 protease [2]) of 97.8%. It also gave an inhibition at 30 µM (HIV-1 protease [2]) of 98.5%.
With CN(c1cccc(C(c2c(O)c3c(oc2=O)CCCCCC3)C2CC2)c1)S(=O)(=O)c1ccc(C#N)cc1 (stereo not drawn) [Example 192, 4-Cyano-N-methyl-N-[3-[cyclopropyl(5,6,7,8,9,10-hexahydro-4-hydroxy-2-oxo-2H-cycloocta[b]pyran-3-yl)methyl]phenyl]-benzenesulfonamide] the Ki (HIV-1 protease [1]; [3]) was 7.2 nM, the inhibition at 0.123 µM (HIV-1 protease [2]) was 44% and the inhibition at 0.37 µM (HIV-1 protease [2]) was 76.3%. For the same molecule, the inhibition at 1.1 µM (HIV-1 protease [2]) was 94%, the inhibition at 3.3 µM (HIV-1 protease [2]) was 96.9% and the inhibition at 10 µM (HIV-1 protease [2]) was 103%. For the same molecule, the inhibition at 30 µM (HIV-1 protease [2]) was 94.4%.
CN(c1cccc(C(c2c(O)c3c(oc2=O)CCCCCC3)C2CC2)c1)S(=O)(=O)c1cn(C)cn1 (stereo not drawn) [Example 195, N-methyl-N-[3-[cyclopropyl(5,6,7,8,9,10-hexahydro-4-hydroxy-2-oxo-2H-cycloocta[b]pyran-3-yl)methyl]phenyl]-1H-Imidazole-1-methyl-sulfonamide] gave a Ki (HIV-1 protease [1]; [3]) of 3.7 nM, an inhibition at 0.123 µM (HIV-1 protease [2]) of 60.9% and an inhibition at 0.37 µM (HIV-1 protease [2]) of 85.1%. The inhibition at 1.1 µM (HIV-1 protease [2]) was 90.8%, the inhibition at 3.3 µM (HIV-1 protease [2]) was 90.8% and the inhibition at 10 µM (HIV-1 protease [2]) was 93.1%. The inhibition at 30 µM (HIV-1 protease [2]) was 92.7%.
For CCCC1(CCc2ccc(F)cc2)CC(O)=C(C(CC)c2cccc(NS(=O)(=O)c3ccc(C#N)cn3)c2)C(=O)O1 (stereo not drawn) [Example 255, N-[3-{1-(4-Hydroxy-5,6-dihydro-2-oxo-6-(2-(4-fluorophenyl)ethyl)-6-propyl-2H-pyran-3-yl)propyl}phenyl]-5-cyanopyridine-2-sulfonamide], the Ki (HIV-1 protease [1]; [3]) was 1.6 nM.
For CCC(C1=C(O)CC(CCc2ccc(F)cc2)(CCc2ccc(F)cc2)OC1=O)c1cccc(NS(=O)(=O)c2cn(C)cn2)c1 (stereo not drawn) [Example 258, N-[3-{1-(4-Hydroxy-5,6-dihydro-2-oxo-6,6-bis(2-(4-fluorophenyl)ethyl)-2H-pyran-3-yl)propyl}phenyl]-1-methyl-1H-imidazole-4-sulfonamide], the Ki (HIV-1 protease [1]; [3]) was 4.3 nM.
In the case of CCC(C1=C(O)C2CCCCC2OC1=O)c1cccc(NS(=O)(=O)c2ccc(C#N)cc2)c1 (stereo not drawn) [Example 371], the Ki (HIV-1 protease [1]; read-out: FITC KI) is reported as 15.4 nM.
Molecule CCC(C1=C(O)CC(CCC2CC2)(CCC2CC2)OC1=O)c1cccc(NS(=O)(=O)c2cn(C)cn2)c1 (stereo not drawn) [Example 246, N-[3-(1-[6,6-Bis-(2-cyclopropyl-ethyl)-5,6-dihydro-4-hydroxy-2-oxo-2H-pyran-3-yl]propyl)phenyl]-1-methyl-1H-imidazole-4-sulfonamide] has a Ki (HIV-1 protease [1]; [3]) of 1.7 nM.
CCC(C1=C(O)CC(CC)(c2cccc(NS(=O)(=O)c3cn(C)cn3)c2)OC1=O)c1cccc(NS(=O)(=O)c2cn(C)cn2)c1 (stereo not drawn) [Example 248, N-(3-[1-(6-Ethyl-5,6-dihydro-4-hydroxy-6-[3-([(1-methyl-1H-imidazol-4-yl)sulfonyl]amino)phenyl]-2-2H-pyran-3-yl)propyl]phenyl)-1-methyl-1H-imidazole-4-sulfonamide] was tested, and the Ki (HIV-1 protease [1]; [3]) was 4.7 nM.
Molecule CCC(C1=C(O)CC(CC)(c2cccc(NS(=O)(=O)c3ccc(C#N)cn3)c2)OC1=O)c1cccc(NS(=O)(=O)c2ccc(C#N)cn2)c1 (stereo not drawn) [Example 249, 5-Cyano-N-(3-[1-(6-[3-([(5-cyano-2-pyridinyl)sulfonyl]amino)phenyl]-6-ethyl-5,6-dihydro-4-hydroxy-2-oxo-2H-pyran-3-yl)propyl]phenyl)-2-pyridinesulfonamide] has a Ki (HIV-1 protease [1]; [4]) of 0.75 nM.
For Cn1cnc(S(=O)(=O)Nc2cccc(C(c3c(O)cc(C(CC4CC4)CC4CC4)oc3=O)C3CC3)c2)c1 (stereo not drawn) [98 First Compound], the Ki (HIV-1 protease [1]; [4]) was 0.74 nM and 0.8 nM.
With CCC(C1=C(O)CC(CCc2ccc(F)cc2)(CCc2ccc(F)cc2)OC1=O)c1cccc(NS(=O)(=O)c2ccc(C#N)cn2)c1 (stereo not drawn) [Example 259, N-[3-{1-(4-Hydroxy-5,6-dihydro-2-oxo-6,6-bis(2-(4-fluorophenyl)ethyl)-2H-pyran-3-yl)propyl}phenyl]-5-cyanopyridine-2-sulfonamide] the Ki (HIV-1 protease [1]; [3]) was 2.2 nM.
With CCCC1(CCC)CC(O)=C(C(c2cccc(NS(=O)(=O)c3cn(C)cn3)c2)C(C)(C)C)C(=O)O1 (stereo not drawn) [Example 261, N-[3-{1-(4-Hydroxy-5,6-dihydro-2-oxo-6,6-dipropyl-2H-pyran-3-yl)-2,2-dimethylpropyl}phenyl]-1-methyl-1H-imidazole-4-sulfonamide] the Ki (HIV-1 protease [1]; [3]) was 0.87 nM.
With CC(C)(C)C(C1=C(O)CC(CCc2ccc(F)cc2)(CCc2ccc(F)cc2)OC1=O)c1cccc(NS(=O)(=O)c2ccc(C#N)cn2)c1 (stereo not drawn) [Example 257, N-[3-{1-(4-Hydroxy-5,6-dihydro-2-oxo-6,6-bis(2-(4-fluorophenyl)ethyl)-2H-pyran-3-yl)-2,2-dimethylpropyl}phenyl]-5-cyanopyridine-2-sulfonamide] the Ki (HIV-1 protease [1]; [3]) was 9 nM.
In the case of Cn1cnc(S(=O)(=O)Nc2cccc(C(c3c(O)cc(C(CC4CC4)CC4CC4)oc3=O)C3CC3)c2)c1 (stereo not drawn) [98 Second Compound], the Ki (HIV-1 protease [1]; [4]) is reported as 0.84 nM and 0.8 nM.
For Cn1cnc(S(=O)(=O)Nc2cccc(C(C3=C(O)CC(CCc4ccc(F)cc4)(CCc4ccc(F)cc4)OC3=O)C(C)(C)C)c2)c1 (stereo not drawn) [Example 256, N-[3-{1-(4-Hydroxy-5,6-dihydro-2-oxo-6,6-bis(2-(4-fluorophenyl)ethyl)-2H-pyran-3-yl)-2,2-dimethylpropyl}phenyl]-1-methyl-1H-imidazole-4-sulfonamide], the Ki (HIV-1 protease [1]; [3]) was 8.3 nM.
Work on CCCC1(CCC)CC(O)=C(C(c2cccc(NS(=O)(=O)c3ccc(C#N)cn3)c2)C(C)(C)C)C(=O)O1 (stereo not drawn) [Example 260, N-[3-{1-(4-Hydroxy-5,6-dihydro-2-oxo-6,6-dipropyl-2H-pyran-3-yl)-2,2-dimethylpropyl}phenyl]-5-cyanopyridine-2-sulfonamide] yielded a Ki (HIV-1 protease [1]; [3]) of 2 nM.
CCCC1(CCc2ccc(F)cc2)CC(O)=C(C(CC)c2cccc(NS(=O)(=O)c3cn(C)cn3)c2)C(=O)O1 (stereo not drawn) [Example 254, N-[3-{1-(4-Hydroxy-5,6-dihydro-2-oxo-6-(2-(4-fluorophenyl)ethyl)-6-propyl-2H-pyran-3-yl)propyl}phenyl]-1-methyl-1H-imidazole-4-sulfonamide] gave a Ki (HIV-1 protease [1]; [4]) of 3 nM.
Work on CCC(C1=C(O)CC(CCC2CC2)(CCC2CC2)OC1=O)c1cccc(NS(=O)(=O)c2ccc(C#N)cn2)c1 (stereo not drawn) [Example 247, N-[3-(1-[6,6-Bis-(2-cyclopropyl-ethyl)-5,6-dihydro-4-hydroxy-2-oxo-2H-pyran-3-yl]propyl)phenyl]-5-cyano-2-pyridinesulfonamide] yielded a Ki (HIV-1 protease [1]; [3]) of 1.2 nM.

From patent US6169181A, “Compounds useful to treat retroviral infections” (Pharmacia & Upjohn Company, priority 1998, dated 2001)
